According to patent US20240092758A1, “IMIDAZOLO INDAZOLE COMPOUNDS AS JAK INHIBITORS” (Theravance Biopharma R&D IP, LLC, priority 2021, published 2024):

Key:
JAK1 = JAK1 (Homo sapiens (Human), UniProt P23458); assay: Biochemical JAK kinase assay (LanthaScreen), JAK1; settings: for Ki: read-out: JAK1 pKi (converted)
Outline: (§1)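 LanthaScreen format: phospho-STAT1 (pTyr701) detected with 2 nM Tb antibody after 10 mM EDTA quench. Kinase step used Km-level ATP and 200 nM STAT1 peptide, 1 h at ambient after 1 h pre-incubation. Inhibition fitted to IC50, reported as pKi.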

JAK2 = JAK2 (Homo sapiens (Human), UniProt O60674); assay: Biochemical JAK kinase assay (LanthaScreen), JAK2; settings: for Ki: read-out: JAK2 pKi (converted)
Outline: as §1

[1] = tested on: IL-13 induced STAT6 phosphorylation in BEAS-2B human lung epithelial cells; assay: Cellular JAKI potency assay (BEAS-2B); format: cell-based; settings: Homo sapiens, BEAS-2B, BEAS-2B cells, read-out: BEAS2B pIC50 (converted)
Outline: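 BEAS-2B cells were preincubated with compound (0.1% DMSO) in HBSS/HEPES/BSA for 1 h at 37 °C, then stimulated with IL-13 (80 ng/mL before addition) for 30 min. After lysis, pSTAT6 (Tyr641) was quantified by AlphaLISA SureFire; IC50 from a 4-parameter fit of percent inhibition, reported as pIC50.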

Sequence of JAK2 (O60674 whole entry): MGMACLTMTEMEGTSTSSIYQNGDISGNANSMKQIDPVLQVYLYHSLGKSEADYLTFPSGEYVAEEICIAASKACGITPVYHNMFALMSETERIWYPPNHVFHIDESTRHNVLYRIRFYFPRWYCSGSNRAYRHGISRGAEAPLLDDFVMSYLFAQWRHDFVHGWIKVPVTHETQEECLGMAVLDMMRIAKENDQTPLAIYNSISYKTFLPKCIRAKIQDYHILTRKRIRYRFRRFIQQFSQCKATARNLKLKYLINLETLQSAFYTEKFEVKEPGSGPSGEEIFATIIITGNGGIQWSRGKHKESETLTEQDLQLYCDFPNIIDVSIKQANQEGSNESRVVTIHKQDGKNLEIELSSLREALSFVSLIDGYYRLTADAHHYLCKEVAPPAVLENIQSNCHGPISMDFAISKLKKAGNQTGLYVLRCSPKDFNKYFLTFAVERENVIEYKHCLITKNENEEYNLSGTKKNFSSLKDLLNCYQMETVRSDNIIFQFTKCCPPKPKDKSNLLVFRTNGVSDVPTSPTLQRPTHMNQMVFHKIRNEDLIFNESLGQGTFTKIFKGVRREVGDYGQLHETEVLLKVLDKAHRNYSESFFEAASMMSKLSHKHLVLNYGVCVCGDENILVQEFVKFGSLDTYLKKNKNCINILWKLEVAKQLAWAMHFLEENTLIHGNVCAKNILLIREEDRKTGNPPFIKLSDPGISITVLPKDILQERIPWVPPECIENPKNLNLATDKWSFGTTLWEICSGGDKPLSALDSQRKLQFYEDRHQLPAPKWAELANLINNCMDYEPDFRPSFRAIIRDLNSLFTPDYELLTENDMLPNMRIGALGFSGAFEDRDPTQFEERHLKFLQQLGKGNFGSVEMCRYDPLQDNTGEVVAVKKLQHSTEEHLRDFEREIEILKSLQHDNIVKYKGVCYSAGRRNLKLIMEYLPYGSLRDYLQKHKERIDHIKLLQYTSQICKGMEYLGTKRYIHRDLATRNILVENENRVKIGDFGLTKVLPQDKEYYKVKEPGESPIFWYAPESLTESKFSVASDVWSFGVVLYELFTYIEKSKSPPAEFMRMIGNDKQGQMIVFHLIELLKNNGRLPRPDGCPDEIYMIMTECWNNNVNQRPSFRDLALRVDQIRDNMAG
Sequence of JAK1 (P23458 whole entry): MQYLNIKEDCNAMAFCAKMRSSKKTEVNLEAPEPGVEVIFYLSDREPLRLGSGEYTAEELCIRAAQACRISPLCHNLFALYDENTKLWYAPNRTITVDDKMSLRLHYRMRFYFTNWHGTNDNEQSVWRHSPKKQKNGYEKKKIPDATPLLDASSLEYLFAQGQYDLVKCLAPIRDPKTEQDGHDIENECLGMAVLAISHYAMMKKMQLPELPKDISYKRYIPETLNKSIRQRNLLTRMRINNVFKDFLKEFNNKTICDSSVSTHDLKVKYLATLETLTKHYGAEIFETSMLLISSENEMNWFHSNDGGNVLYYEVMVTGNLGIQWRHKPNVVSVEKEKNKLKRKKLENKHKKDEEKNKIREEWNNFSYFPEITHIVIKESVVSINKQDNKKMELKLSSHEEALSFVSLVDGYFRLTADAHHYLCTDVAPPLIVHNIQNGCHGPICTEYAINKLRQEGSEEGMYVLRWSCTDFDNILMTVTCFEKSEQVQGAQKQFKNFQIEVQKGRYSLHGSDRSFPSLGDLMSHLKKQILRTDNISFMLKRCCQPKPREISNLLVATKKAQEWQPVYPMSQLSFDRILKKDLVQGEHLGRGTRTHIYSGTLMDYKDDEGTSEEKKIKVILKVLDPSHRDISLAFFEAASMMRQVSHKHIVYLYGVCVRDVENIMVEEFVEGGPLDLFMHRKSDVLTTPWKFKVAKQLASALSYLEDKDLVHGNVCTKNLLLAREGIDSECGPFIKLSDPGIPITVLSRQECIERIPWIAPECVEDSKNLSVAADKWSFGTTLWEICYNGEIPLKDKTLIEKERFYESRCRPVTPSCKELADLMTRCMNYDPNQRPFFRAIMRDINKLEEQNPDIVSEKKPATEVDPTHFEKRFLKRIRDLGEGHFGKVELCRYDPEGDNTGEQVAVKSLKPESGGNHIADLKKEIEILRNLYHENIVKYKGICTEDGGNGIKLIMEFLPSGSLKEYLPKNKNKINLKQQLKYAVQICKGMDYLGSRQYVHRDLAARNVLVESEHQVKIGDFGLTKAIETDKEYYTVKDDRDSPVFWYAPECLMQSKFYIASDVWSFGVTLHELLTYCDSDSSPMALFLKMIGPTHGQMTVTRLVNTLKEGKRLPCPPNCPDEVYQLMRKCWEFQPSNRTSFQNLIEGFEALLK

Row | SMILES | Ki (JAK1) | JAK2 pKi (JAK2) | IC50 [1] | JAK1 pKi (JAK1) | Ki (JAK2)
1 | CCc1cc(O)ccc1-c1ccc2c(-c3nc(C4=CCCN(CCO)C4)c[nH]3)n[nH]c2c1 [Example 41] | 0.1 to 1 nM | A (A represents a pKi value ≥10 (Ki≤0.1 nM)) | 3.16 to 10 nM | – | –
2 | CCc1cc(O)ccc1-c1ccc2c(-c3nc(C4=CCN(Cc5cn[nH]c5)C4)c[nH]3)n[nH]c2c1F [Example 145] | – | A (A represents a pKi value ≥10 (Ki≤0.1 nM)) | 10 to 31.6 nM | A (A represents a pKi value ≥10 (Ki≤0.1 nM)) | –
3 | CCc1cc(O)ccc1-c1ccc2c(-c3nc(C4=CCN(C5CCOCC5)CC4)c[nH]3)n[nH]c2c1F [Example 61] | 0.1 to 1 nM | A (A represents a pKi value ≥10 (Ki≤0.1 nM)) | 10 to 31.6 nM | – | –
4 | CCc1cc(O)ccc1-c1ccc2c(-c3nc(C4=CCCN(CCCOC)C4)c[nH]3)n[nH]c2c1F [Example 67] | 0.1 to 1 nM | – | 10 to 31.6 nM | – | 0.1 to 1 nM
5 | CCc1cc(O)ccc1-c1ccc2c(-c3nc(C4=CC[C@H](C)N(CCN5CCCC5=O)C4)c[nH]3)n[nH]c2c1F [Example 271] | 0.1 to 1 nM | – | 10 to 31.6 nM | – | 0.1 to 1 nM
6 | CCc1cc(O)ccc1-c1ccc2c(-c3nc(C4=CCCN(CC(=O)NC)C4)c[nH]3)n[nH]c2c1 [Example 88] | 0.1 to 1 nM | A (A represents a pKi value ≥10 (Ki≤0.1 nM)) | 10 to 31.6 nM | – | –
7 | CCc1cc(O)ccc1-c1ccc2c(-c3nc(C4=C[C@H](CC(=O)N5CCOCC5)NC4)c[nH]3)n[nH]c2c1F [Example 361] | 0.1 to 1 nM | A (A represents a pKi value ≥10 (Ki≤0.1 nM)) | 31.6 to 100 nM | – | –
8 | CCc1cc(O)ccc1-c1ccc2c(-c3nc(C4=CCN(CCCOC)CC4)c[nH]3)n[nH]c2c1 [Example 56] | – | A (A represents a pKi value ≥10 (Ki≤0.1 nM)) | 3.16 to 10 nM | A (A represents a pKi value ≥10 (Ki≤0.1 nM)) | –
9 | CCc1cc(O)ccc1-c1ccc2c(-c3nc(C4=CCCN(CC(=O)NC)C4)c[nH]3)n[nH]c2c1F [Example 92] | 1 to 10 nM | – | 10 to 31.6 nM | – | 0.1 to 1 nM
10 | CCc1cc(O)ccc1-c1ccc2c(-c3nc(C4=CCN(CCC(=O)NC)C4)c[nH]3)n[nH]c2c1F [Example 342] | 0.1 to 1 nM | – | 10 to 31.6 nM | – | 0.1 to 1 nM
11 | CCc1cc(O)ccc1-c1ccc2c(-c3nc(C4=CCCN(CCNC(=O)C(C)C)C4)c[nH]3)n[nH]c2c1 [Example 110] | 0.1 to 1 nM | – | 10 to 31.6 nM | – | 0.1 to 1 nM
12 | CCc1cc(O)ccc1-c1ccc2c(-c3nc(C4=CCCN(CCS(C)(=O)=O)C4)c[nH]3)n[nH]c2c1F [Example 91] | 0.1 to 1 nM | – | 10 to 31.6 nM | – | 0.1 to 1 nM
13 | CCc1cc(O)ccc1-c1ccc2c(-c3nc(C4=C[C@H](CC(=O)OC(C)C)NC4)c[nH]3)n[nH]c2c1F [Example 309] | 0.1 to 1 nM | – | 10 to 31.6 nM | – | 0.1 to 1 nM
14 | CCc1cc(O)ccc1-c1ccc2c(-c3nc(C4=CCN(C(C)C5CC(O)C5)CC4)c[nH]3)n[nH]c2c1F (stereo not drawn) [Example 58] | – | A (A represents a pKi value ≥10 (Ki≤0.1 nM)) | 3.16 to 10 nM | A (A represents a pKi value ≥10 (Ki≤0.1 nM)) | –
15 | CCc1cc(O)ccc1-c1ccc2c(-c3nc(C4=CC(C)(C)NC4)c[nH]3)n[nH]c2c1F [Example 336] | 0.1 to 1 nM | – | 10 to 31.6 nM | – | 0.1 to 1 nM
16 | CCc1cc(O)ccc1-c1ccc2c(-c3nc(C4=CC[C@H](C)N(CCS(=O)(=O)NC)C4)c[nH]3)n[nH]c2c1F [Example 277] | 1 to 10 nM | – | 31.6 to 100 nM | – | 0.1 to 1 nM
17 | CCc1cc(O)ccc1-c1ccc2c(-c3nc(C4=CC[C@H](C)N(C[C@H]5COCCN5)C4)c[nH]3)n[nH]c2c1F [Example 269] | 0.1 to 1 nM | – | 31.6 to 100 nM | – | 0.1 to 1 nM
18 | CCc1cc(O)ccc1-c1ccc2c(-c3nc(C4=CCCN(C(C)C)C4)c[nH]3)n[nH]c2c1 [Example 28] | 0.1 to 1 nM | – | 3.16 to 10 nM | – | 0.1 to 1 nM

Row | SMILES | Ki (JAK1) | JAK2 pKi (JAK2) | IC50 [1] | JAK1 pKi (JAK1) | Ki (JAK2)
19 | CCc1cc(O)ccc1-c1ccc2c(-c3nc(C4=CCN(CCNC(C)=O)C4)c[nH]3)n[nH]c2c1 [Example 114] | – | A (A represents a pKi value ≥10 (Ki≤0.1 nM)) | 3.16 to 10 nM | A (A represents a pKi value ≥10 (Ki≤0.1 nM)) | –
20 | CCc1cc(O)ccc1-c1ccc2c(-c3nc(C4=C[C@H](CO)N(CCCO)C4)c[nH]3)n[nH]c2c1F [Example 264] | 0.1 to 1 nM | A (A represents a pKi value ≥10 (Ki≤0.1 nM)) | 10 to 31.6 nM | – | –
21 | CCc1cc(O)ccc1-c1ccc2c(-c3nc(C4=CCN([C@H]5CC[C@H](O)CC5)C4)c[nH]3)n[nH]c2c1 [Example 128] | – | A (A represents a pKi value ≥10 (Ki≤0.1 nM)) | 3.16 to 10 nM | A (A represents a pKi value ≥10 (Ki≤0.1 nM)) | –
22 | CCc1cc(O)ccc1-c1ccc2c(-c3nc(C4=CCN(C(=O)CCNC)C4)c[nH]3)n[nH]c2c1F [Example 380] | 0.1 to 1 nM | A (A represents a pKi value ≥10 (Ki≤0.1 nM)) | 31.6 to 100 nM | – | –
23 | CCc1cc(O)ccc1-c1ccc2c(-c3nc(C4=CCN(C(=O)CN5CCN(C)CC5)C4)c[nH]3)n[nH]c2c1F [Example 365] | 0.1 to 1 nM | A (A represents a pKi value ≥10 (Ki≤0.1 nM)) | 31.6 to 100 nM | – | –
24 | CCc1cc(O)ccc1-c1ccc2c(-c3nc(C4=CCCN(C5CC(O)C5)C4)c[nH]3)n[nH]c2c1F (stereo not drawn) [Compound 10, 3-ethyl-4-(7-fluoro-3-(4-(1-(3-hydroxycyclobutyl)-1,2,5,6-tetrahydropyridin-3-yl)-1H-imidazol-2-yl)-1H-indazol-6-yl)phenol] | 0.1 to 1 nM | – | 10 to 31.6 nM | – | 0.1 to 1 nM
25 | CCc1cc(O)ccc1-c1ccc2c(-c3nc(C4=CC(c5ccccc5)NC4)c[nH]3)n[nH]c2c1F (stereo not drawn) [Example 372] | 1 to 10 nM | – | 31.6 to 100 nM | – | 1 to 10 nM
26 | CCc1cc(O)ccc1-c1ccc2c(-c3nc(C4=CCN(CCC5(O)CCC5)CC4)c[nH]3)n[nH]c2c1F [Example 334] | 0.1 to 1 nM | – | 10 to 31.6 nM | – | 0.1 to 1 nM
27 | CCc1cc(O)ccc1-c1ccc2c(-c3nc(C4=CCN(CCCNS(C)(=O)=O)CC4)c[nH]3)n[nH]c2c1 [Example 103] | – | A (A represents a pKi value ≥10 (Ki≤0.1 nM)) | 10 to 31.6 nM | A (A represents a pKi value ≥10 (Ki≤0.1 nM)) | –
28 | CCc1cc(O)ccc1-c1ccc2c(-c3nc(C4=C[C@@H](CC#N)NC4)c[nH]3)n[nH]c2c1 [Example 248] | 0.1 to 1 nM | – | 10 to 31.6 nM | – | 0.1 to 1 nM
29 | CCc1cc(O)ccc1-c1ccc2c(-c3nc(C4=CCCN(C[C@H](C)CO)C4)c[nH]3)n[nH]c2c1F [Example 48] | 0.1 to 1 nM | – | 10 to 31.6 nM | – | 0.1 to 1 nM
30 | CCc1cc(O)ccc1-c1ccc2c(-c3nc(C4=CCN(C5CC(O)C5)CC4)c[nH]3)n[nH]c2c1F (stereo not drawn) [Example 40] | – | A (A represents a pKi value ≥10 (Ki≤0.1 nM)) | 10 to 31.6 nM | A (A represents a pKi value ≥10 (Ki≤0.1 nM)) | –
31 | CCc1cc(O)ccc1-c1ccc2c(-c3nc(C4=CCC(C)(C)NC4)c[nH]3)n[nH]c2c1F [Example 306] | 0.1 to 1 nM | – | 10 to 31.6 nM | – | 0.1 to 1 nM
32 | CCOC(=O)C1=C(c2c[nH]c(-c3n[nH]c4cc(-c5ccc(O)cc5CC)ccc34)n2)CNCC1 [Example 302] | – | – | 10 to 31.6 nM | A (A represents a pKi value ≥10 (Ki≤0.1 nM)) | 0.1 to 1 nM
33 | CCc1cc(O)ccc1-c1ccc2c(-c3nc(C4=C[C@H](C(=O)OC)NC4)c[nH]3)n[nH]c2c1F [Example 250] | 0.1 to 1 nM | – | 31.6 to 100 nM | – | 0.1 to 1 nM
34 | CCc1cc(O)ccc1-c1ccc2c(-c3nc(C4=CCN(C(=O)c5ccccc5)CC4)c[nH]3)n[nH]c2c1 [Example 151] | 1 to 10 nM | – | 31.6 to 100 nM | – | 1 to 10 nM
35 | CCc1cc(O)ccc1-c1ccc2c(-c3nc(C4=CC(C)CNC4)c[nH]3)n[nH]c2c1F (stereo not drawn) [Example 327] | 0.1 to 1 nM | – | 10 to 31.6 nM | – | 0.1 to 1 nM
36 | CCc1cc(O)ccc1-c1ccc2c(-c3nc(C4=CCN(C(=O)CNC)C4)c[nH]3)n[nH]c2c1F [Example 349] | 0.1 to 1 nM | A (A represents a pKi value ≥10 (Ki≤0.1 nM)) | 31.6 to 100 nM | – | –
